Data set [1] has as its target T1, TP receptor (Rattus norvegicus, UniProt P34978).
T1 construct: rings of the isolated rat thoracic aorta; from tissue; host or cells: isolated rat thoracic aorta rings
T1 sequence (P34978 1-341): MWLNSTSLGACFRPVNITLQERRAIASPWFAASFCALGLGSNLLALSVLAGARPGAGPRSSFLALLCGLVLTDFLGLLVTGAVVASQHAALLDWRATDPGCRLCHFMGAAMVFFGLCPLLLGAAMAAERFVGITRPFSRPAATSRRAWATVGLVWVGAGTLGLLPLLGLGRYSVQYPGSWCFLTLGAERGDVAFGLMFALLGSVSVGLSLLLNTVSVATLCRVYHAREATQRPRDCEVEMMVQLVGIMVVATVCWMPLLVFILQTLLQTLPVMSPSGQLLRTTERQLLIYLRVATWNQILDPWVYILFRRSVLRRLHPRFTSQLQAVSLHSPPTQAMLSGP
Description: TP-vasoconstrictor activity: contraction of rings of the isolated rat thoracic aorta. The format is cell-based. The protocol:
(§1) Activity at different prostanoid receptors was measured in vitro in isolated smooth muscle preparations. FP-activity was measured as contraction of the isolated feline iris sphincter. EP1-activity was measured as contraction of the longitudinal smooth muscle of the isolated guinea pig ileum. EP3-activity was measured as inhibition of the twitch response induced by electrical field stimulation in the isolated guinea pig was deferens and as contraction of the longitudinal smooth muscle of the isolated chick ileum. Activity was also measured as relaxation of smooth muscle of isolated rabbit jugular vein a preparation which appears to contain a unique PGF2α-sensitive receptor provisionally termed FPVASC. TP-vasoconstrictor activity was measured as contraction of rings of the isolated rat thoracic aorta. Effects on platelets from healthy human donors were measured by incubating platelet-rich plasma with the compounds described herein. Inhibition of aggregation was determined by the ability of the compounds described herein to inhibit platelet aggregation in platelet-rich plasma induced by 20 μM ADP.

Data set [2] has as its system PGF2α-sensitive receptor provisionally termed FPVASC. Description: Relaxation of smooth muscle of isolated rabbit jugular vein. The class given is cell-based. The protocol:
as §1

Data set [3] has as its target T2, EP3 receptor (UniProt A0A286XLZ9).
T2 sequence (A0A286XLZ9 1-363): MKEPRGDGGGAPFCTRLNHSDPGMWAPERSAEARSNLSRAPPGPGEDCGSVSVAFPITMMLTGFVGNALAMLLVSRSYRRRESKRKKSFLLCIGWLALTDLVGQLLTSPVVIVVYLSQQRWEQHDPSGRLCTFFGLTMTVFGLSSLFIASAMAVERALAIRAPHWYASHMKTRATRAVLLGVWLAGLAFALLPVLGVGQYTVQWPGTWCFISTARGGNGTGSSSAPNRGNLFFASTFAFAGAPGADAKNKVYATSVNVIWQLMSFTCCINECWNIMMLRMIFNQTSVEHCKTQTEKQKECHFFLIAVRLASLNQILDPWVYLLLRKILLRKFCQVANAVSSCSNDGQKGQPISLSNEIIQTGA
Description: EP3-activity: inhibition of the twitch response induced by electrical field stimulation in the isolated guinea pig vas deferens. The class given is cell-based. The note with it: pa = printed beside some values, read-out: EC50 (nM) EP3, first value of the cell. The protocol:
as §1

Data set [4] addresses T3, EP1 receptor (Cavia porcellus, UniProt A0A286XHJ6).
T3 sequence (A0A286XHJ6 1-405): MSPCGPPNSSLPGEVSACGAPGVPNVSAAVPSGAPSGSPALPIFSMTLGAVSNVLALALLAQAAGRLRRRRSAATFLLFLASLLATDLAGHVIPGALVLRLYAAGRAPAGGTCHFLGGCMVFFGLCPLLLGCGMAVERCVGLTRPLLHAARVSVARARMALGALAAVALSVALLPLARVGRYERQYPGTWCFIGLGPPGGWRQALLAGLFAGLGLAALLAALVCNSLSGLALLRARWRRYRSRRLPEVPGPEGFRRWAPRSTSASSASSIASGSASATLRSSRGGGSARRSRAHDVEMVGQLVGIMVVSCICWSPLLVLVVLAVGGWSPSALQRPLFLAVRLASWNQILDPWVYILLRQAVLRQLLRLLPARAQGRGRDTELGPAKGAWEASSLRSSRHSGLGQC
Description: EP1-activity: contraction of the longitudinal smooth muscle of the isolated guinea pig ileum. The class given is cell-based. The protocol:
as §1

The test system of data set [5] is Dog eye (miosis). Description: Miosis in dogs after topical dosing. The class given is in vivo.
Data set [6] has as its system Dog eye (hyperemia). The data set is described as follows: Ocular surface hyperemia in dogs after topical dosing. The format is in vivo. More on the design: scale not given here.
The mark [7] stands for this setting: isolated rat thoracic aorta contraction, read-out: EC50 (nM) TP.
[8] abbreviates: isolated rabbit jugular vein relaxation, read-out: EC50 (nM) FPVASC.
Setting [9] is: Table of compounds 17a-25, unit inferred, read-out: rtTPva.
[10] abbreviates: read-out: rbFPv/EP4, Table of compounds 17a-25, unit inferred.

Read-outs that look alike come from different tables or passages of the source.

As for `NC(=O)CCC/C=C\C[C@@H]1[C@@H](/C=C/[C@@H](O)CCc2ccsc2)[C@H](O)C[C@@H]1O`, the EC50 in data set [1] (setting [7]) was above 10000 nM; in data set [2] (setting [8]), 3.6 nM; in data set [3] it was above 10000 nM; in data set [4], above 10000 nM.

As for `O=C(O)CCC/C=C\C[C@@H]1[C@@H](/C=C/[C@H](O)CCc2ccsc2)[C@H](O)C[C@@H]1O`, the EC50 in data set [2] (setting [8]) came to 58 nM.

As for `NC(=O)CCC/C=C\C[C@@H]1[C@@H](/C=C/[C@H](O)CCc2ccsc2)[C@H](O)C[C@@H]1O`, in data set [5] (0.1%), the Miosis result is on record as “pin”. The “Hyp (hyperemia score)” value in data set [6] (0.1%) was found to be 0.72.

Take `O=C(O)CCC/C=C\C[C@@H]1[C@@H](CC[C@@H](O)CCc2ccsc2)[C@H](O)C[C@@H]1O`: the EC50 was 4740 nM in data set [1] (setting [7]), 545 nM in data set [2] (setting [8]), 105 nM in data set [3] and above 10000 nM in data set [4].

Turning to `O=C(O)CCC/C=C\C[C@@H]1[C@@H](/C=C/[C@@H](O)CCc2ccoc2)[C@H](O)C[C@@H]1O`, the values for the EC50 in data set [1] (setting [7]), in data set [3] and in data set [4] were 5400 nM, 83 nM and above 10000 nM, respectively. Besides, the Miosis result in data set [5] (0.01%) is on record as “mild”; in data set [5] (0.1%) it was “pinpoint”. The figures for the “Hyp (hyperemia score)” value in data set [6] (0.01%) and in data set [6] (0.1%) were 0.83 and 0.38, respectively.

With `O=C(O)CCC/C=C\C[C@@H]1[C@@H](CCC(O)CCc2ccoc2)[C@H](O)C[C@@H]1O` (some centres unmarked), the EC50 in data set [2] (setting [8]) is above 5880 nM.

As to `Cc1sccc1CC[C@H](O)/C=C/[C@@H]1[C@@H](C/C=C\CCCC(=O)O)[C@@H](O)C[C@H]1O`, the EC50 in data set [1] (setting [7]) was 3980 nM; in data set [2] (setting [8]) it was above 833 nM; in data set [3], 355 nM; in data set [4] it was above 10000 nM.

On to `O=C(O)CCC/C=C\C[C@@H]1[C@@H](/C=C/[C@@H](O)CCc2cc3ccccc3o2)[C@H](O)C[C@@H]1O`, for which the Miosis in data set [5] (0.01%) and in data set [5] (0.1%) was 0 each time. Besides, the EC50 in data set [2] (setting [8]) is above 69000 nM; in data set [3], 9000 nM. The entries for the “Hyp (hyperemia score)” value in data set [6] (0.01%) and in data set [6] (0.1%) were 0.17 and 0.13, respectively.

Regarding `O=C(O)CCC/C=C\C[C@@H]1[C@@H](/C=C/[C@@H](O)CCc2cc3ccccc3s2)[C@H](O)C[C@@H]1O`, the values for the EC50 in data set [2] (setting [8]) and in data set [3] were 2660 nM and around 10000 nM, respectively.

Consider `Cc1ccc(CC[C@H](O)/C=C/[C@@H]2[C@@H](C/C=C\CCCC(=O)O)[C@@H](O)C[C@H]2O)s1`, for which the EC50 was above 10000 nM in data set [1] (setting [7]), above 7690 nM in data set [2] (setting [8]), 341 nM in data set [3] and above 10000 nM in data set [4].

Consider `O=C(O)CCC/C=C\C[C@@H]1[C@@H](/C=C/[C@@H](O)CCc2cc(Br)cs2)[C@H](O)C[C@@H]1O`, for which the EC50 was 371 nM in data set [1] (setting [7]), 16 nM in data set [2] (setting [8]), 50 nM in data set [3] and above 10000 nM in data set [4].

Consider `O=C(O)CCC/C=C\C[C@@H]1[C@@H](/C=C/[C@@H](O)CCc2nccs2)[C@H](O)C[C@@H]1O`, for which, in data set [5] (0.1%), the Miosis result was “pinpoint”. In addition, in data set [2] (setting [8]), the EC50 turned out to be 1000 nM. In addition, the “Hyp (hyperemia score)” value in data set [6] (0.1%) worked out at 0.6.

Take `O=C(O)CCC/C=C\C[C@@H]1[C@@H](/C=C/[C@H](O)CCc2nccs2)[C@H](O)C[C@@H]1O`: the EC50 in data set [2] (setting [8]) worked out at 28300 nM.

As to `O=C(O)CCC/C=C\C[C@@H]1[C@@H](/C=C/[C@@H](O)CCc2sccc2Cl)[C@H](O)C[C@@H]1O`, the EC50 in data set [1] (setting [7]) is 3530 nM; in data set [2] (setting [8]), 122 nM; in data set [4], above 10000 nM.

As to `CCc1ccc(CC[C@H](O)/C=C/[C@@H]2[C@@H](C/C=C\CCCC(=O)O)[C@@H](O)C[C@H]2O)s1`, the EC50 was above 10000 nM in data set [1] (setting [7]) and 21 nM in data set [2] (setting [8]).

In the case of `NC(=O)CCC/C=C\C[C@@H]1[C@@H](/C=C/[C@@H](O)CCc2cc(Cl)sc2Cl)[C@H](O)C[C@@H]1O`, the EC50 in data set [1] (setting [7]) was above 10000 nM; in data set [2] (setting [8]) it was 82 nM. The Miosis result in data set [5] (0.1%) is reported as “pinpoint”. For the same molecule, the “Hyp (hyperemia score)” value in data set [6] (0.1%) worked out at 1.2.

For the molecule `N#Cc1ccc(CC[C@H](O)/C=C/[C@@H]2[C@@H](C/C=C\CCCC(=O)O)[C@@H](O)C[C@H]2O)s1` [Compound 17a, 7-[3α,5α-Dihydroxy-2-(3α-hydroxy-5-(2-(5-cyano)thienyl)-1E-pentenyl)cyclopentyl]-5Z-heptenoic acid], the EC50 in data set [1] (setting [9]) is around 10000 nM; in data set [2] (setting [10]), 112 nM.

On to `N#Cc1ccc(CC[C@H](O)/C=C/[C@@H]2[C@@H](C/C=C\CCCC(N)=O)[C@@H](O)C[C@H]2O)s1` [Compound 17b, 7-[3α,5α-Dihydroxy-2-(3α-hydroxy-5-(2-(5-cyano)thienyl)-1E-pentenyl)cyclopentyl]-5Z-heptenamide], for which the EC50 in data set [2] (setting [10]) was above 256000 nM.

Consider `CC(C)OC(=O)CCC/C=C\C[C@@H]1[C@@H](/C=C/[C@@H](O)CCc2ccc(C#N)s2)[C@H](O)C[C@@H]1O` [Compound 17c, Isopropyl-7-[3α,5α-Dihydroxy-2-(3α-hydroxy-5-(2-(5-cyano)thienyl)-1-E-pentenyl)cyclopentyl]-5Z-heptenoate], for which the EC50 in data set [2] (setting [10]) came out at 6510 nM.

Take `O=C(O)CCC/C=C\C[C@@H]1[C@@H](/C=C/[C@@H](O)CCc2sccc2F)[C@H](O)C[C@@H]1O` [Compound 18b]: the EC50 in data set [1] (setting [9]) amounted to 3500 nM; in data set [2] (setting [10]) it was 2.9 nM.

For `CS(=O)(=O)NC(=O)CCC/C=C\C[C@@H]1[C@@H](/C=C/[C@@H](O)CCc2ccc(Cl)s2)[C@H](O)C[C@@H]1O` [Compound 20a, N-Methylsulfonyl-7-[3α,5α-Dihydroxy-2-(3α-hydroxy-5-(2-(5-chloro)thienyl)-1E-pentenyl)cyclopentyl]-5Z-heptenamide], the EC50 in data set [2] (setting [10]) turned out to be 6070 nM.

For the molecule `CCS(=O)(=O)NC(=O)CCC/C=C\C[C@@H]1[C@@H](/C=C/[C@@H](O)CCc2ccc(Cl)s2)[C@H](O)C[C@@H]1O` [Compound 20b, N-Ethylsulfonyl-7-[3α,5α-Dihydroxy-2-(3α-hydroxy-5-(2-(5-chloro)thienyl)-1E-pentenyl)cyclopentyl]-5Z-heptenamide], the EC50 in data set [2] (setting [10]) is 1040 nM.

`O=C(CCC/C=C\C[C@@H]1[C@@H](/C=C/[C@@H](O)CCc2ccc(Cl)s2)[C@H](O)C[C@@H]1O)NS(=O)(=O)C(F)(F)F` [Compound 20c, N-Trifluoromethylsulfonyl-7-[3α,5α-Dihydroxy-2-(3α-hydroxy-5-(2-(5-chloro)thienyl)-1E-pentenyl)cyclopentyl]-5Z-heptenamide]: the EC50 in data set [1] (setting [9]) was above 10000 nM; in data set [2] (setting [10]), 221 nM.

Turning to `CS(=O)(=O)NC(=O)CCC/C=C\C[C@@H]1[C@@H](/C=C/[C@@H](O)CCc2ccc(I)s2)[C@H](O)C[C@@H]1O` [Compound 21a, N-Methylsulfonyl-7-[3α,5α-Dihydroxy-2-(3α-hydroxy-5-(2-(5-iodo)thienyl)-1E-pentenyl)cyclopentyl]-5Z-heptenamide], the EC50 in data set [2] (setting [10]) is 1820 nM.

For `CCS(=O)(=O)NC(=O)CCC/C=C\C[C@@H]1[C@@H](/C=C/[C@@H](O)CCc2ccc(I)s2)[C@H](O)C[C@@H]1O` [Compound 21b, N-Ethylsulfonyl-7-[3α,5α-Dihydroxy-2-(3α-hydroxy-5-(2-(5-iodo)thienyl)-1E-pentenyl)cyclopentyl]-5Z-heptenamide], the EC50 in data set [2] (setting [10]) worked out at 189 nM.

On to `O=C(CCC/C=C\C[C@@H]1[C@@H](/C=C/[C@@H](O)CCc2ccc(I)s2)[C@H](O)C[C@@H]1O)NS(=O)(=O)C(F)(F)F` [Compound 21c, N-Trifluoromethylsulfonyl-7-[3α,5α-Dihydroxy-2-(3α-hydroxy-5-(2-(5-iodo)thienyl)-1E-pentenyl)cyclopentyl]-5Z-heptenamide], for which the EC50 in data set [2] (setting [10]) was found to be 36 nM.

The values are drawn from patent US6602900B2, “Cyclopentane heptan(ENE)oic acid, 2-heteroarylalkenyl derivatives as therapeutic agents” (Allergan, Inc., priority 1992, dated 2003).
